The values below are quoted from earlier work in patent publication US20110077278A1, “Antifungal compositions and methods” (Troy Corporation, priority 2009, published 2011).

For data set [1] the following is noted: in metal working fluids; BBIT compared with IPBC; reported by US 6,861,395.
Data set [2] concerns certain fungi. As to conditions: BBIT in the presence of sodium omadine and certain fungi; US 6,861,395.

On to `CCCCn1sc2ccccc2c1=O` [BBIT, 2-n-butyl-1,2-benzisothiazolin-3-one], for which the “stability to high temperature storage” value in data set [1] is “considerably more stable to high temperature storage than IPBC”. Further, in data set [2], the synergy result is “exhibits synergy in the presence of sodium omadine and certain fungi”.
